Structures can show the parent of a compound that is named as a salt. Bridge positions count the residues as written; N and C are the ends. Square brackets hold non-standard residues; d marks the D form. Peptide text beside a SMILES is read from it. * marks the point of attachment. X1 = CC[C@H](C)CCCCC(=O)*; Dab = NCC[C@H](N)C(=O)O
Columns and labels:
Format in all cases: cell-based, Pseudomonas aeruginosa
PA14 biofilm [1] = test system: PA14 biofilm
PAO1 biofilm [2] = test system: PAO1 biofilm
PA14 biofilm [3] = test system: PA14 biofilm; remark: listed apart in the source
PAO1 biofilm [4] = test system: PAO1 biofilm; remark: listed apart in the source

## CC[C@H](C)CCCCC(=O)N[C@@H](CCN)C(=O)N[C@H](C(=O)N[C@@H](CCN)C(=O)N[C@H]1CCNC(=O)[C@H]([C@@H](C)O)NC(=O)[C@H](CCN)NC(=O)[C@H](CCN)NC(=O)[C@H](CC(C)C)NC(=O)[C@@H](Cc2ccccc2)NC(=O)[C@H](CCN)NC1=O)[C@@H](C)O [Polymyxin B, Polymyxin B sulfate] (X1-[Dab]T[Dab][Dab][Dab][dF]L[Dab][Dab]T; lactam 4-C (inferred); N-terminus assumed)
PA14 biofilm [1]
  Biofilm inhibition (CV) at sub-MICs and MICs vs untreated control: no significant biofilm inhibition
  Biofilm viability (TTC), % of untreated control: approximately 6 (±6) %
  Concentration at which total bacterial growth (OD600) is significantly inhibited: 2 µg/mL
  Increase in bacterial cells (total growth, OD600): No statistically significant increase
PAO1 biofilm [2]
  Biofilm viability (TTC), % of untreated control: 65 (± 20) %
  Concentration at which total bacterial growth (OD600) is significantly inhibited: 4 µg/mL
  Increase in biofilm mass (CV) vs untreated control: over 200%
  Total bacterial growth (OD600), % of untreated control: approximately 170 (± 48) %
PA14 biofilm [3]
  Reduction of total growth (OD600) vs untreated control: at least 70%
PAO1 biofilm [4]
  Reduction of total growth (OD600) vs untreated control: at least 70%

Reference: publication PMC12829161 (BMC Microbiology, 2025)
